The numbers were not newly measured in US6977269B1, “Method of improving animal tissue quality” (Pioneer Hi-Bred International, Inc, priority 2001, dated 2005), which cites them from elsewhere.

The conditions of series [1]: compared with gamma-tocopherol; cited from earlier work.
Details of series [2]: unit not given here. The following applies: cited from earlier work.

Where two headings read alike, the source gives them in different places.

In the case of `Cc1c(O)cc2c(c1C)OC(C)(C(=O)O)CC2` (centres unmarked) [6-hydroxy-2,7,8-trimethylchroman-2-carboxylic acid], in series [1], the water solubility entry is reported as “more water soluble than gamma-tocopherol”.

As to vitamin E, the tissue level in series [2] (400 IU/KG per steer daily for 180 days) is 3.3; in series [2] (500 IU/KG per steer daily for 126 days), 2.5; in series [2] (1300 IU/KG per steer daily for 44 days) it was 3.3; in series [2] (2000 IU/KG per steer daily for 100 days), 6.1.
